This note sets out measurements from patent US8049012B2, “3-aza-spiro[5.5]undecane derivatives and their use as monoamine neurotransmitter re-uptake inhibitors” (Neurosearch A/S, priority 2005, dated 2011).

Structures are written as SMILES.

Data set [1] concerns the target T1, reuptake of dopamine (DA) in synaptosomes (Rattus norvegicus, UniProt P23977).
T1 construct: in synaptosomes as described in WO 97/16451; from tissue
Description: Inhibition of 3H-DA reuptake in synaptosomes. Format: biochemical. Particulars: as described in WO 97/16451, read-out: DA-uptake IC50. The protocol:
(§1) A number of compounds were tested for their ability to inhibit the reuptake of the monoamine neurotransmitters dopamine (DA) noradrenaline (NA) and serotonine (5-HT) in synaptosomes as described in WO 97/16451.
(§2) The test values are given as IC50 (the concentration (μM) of the test substance which inhibits the specific binding of ^3H-DA, ^3H-NA, or ^3H-5-HT by 50%).

The target in data set [2] is T2, reuptake of serotonine (5-HT) in synaptosomes (Rattus norvegicus, UniProt P31652).
T2 construct: in synaptosomes as described in WO 97/16451; from tissue
Briefly: Inhibition of 3H-5-HT reuptake in synaptosomes. It counts as biochemical. The note with it: as described in WO 97/16451, read-out: 5-HT-uptake IC50. The protocol: as §1, §2

T2 sequence (P31652 whole entry): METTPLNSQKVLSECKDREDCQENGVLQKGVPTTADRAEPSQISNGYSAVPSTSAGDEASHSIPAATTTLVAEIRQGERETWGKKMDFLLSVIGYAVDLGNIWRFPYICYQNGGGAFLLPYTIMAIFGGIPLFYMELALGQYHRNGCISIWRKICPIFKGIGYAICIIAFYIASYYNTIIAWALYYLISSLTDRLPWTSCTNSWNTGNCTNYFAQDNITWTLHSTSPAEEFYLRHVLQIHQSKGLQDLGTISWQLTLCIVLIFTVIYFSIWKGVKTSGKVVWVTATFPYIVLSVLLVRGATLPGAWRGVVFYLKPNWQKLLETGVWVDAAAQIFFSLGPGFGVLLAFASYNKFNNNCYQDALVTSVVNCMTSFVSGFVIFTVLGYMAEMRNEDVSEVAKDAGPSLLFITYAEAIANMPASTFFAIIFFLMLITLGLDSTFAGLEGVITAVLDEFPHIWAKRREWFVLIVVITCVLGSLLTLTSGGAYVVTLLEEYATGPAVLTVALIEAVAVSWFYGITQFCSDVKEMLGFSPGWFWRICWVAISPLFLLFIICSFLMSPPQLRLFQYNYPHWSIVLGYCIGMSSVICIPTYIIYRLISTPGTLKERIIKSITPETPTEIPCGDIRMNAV
T1 sequence (P23977 whole entry): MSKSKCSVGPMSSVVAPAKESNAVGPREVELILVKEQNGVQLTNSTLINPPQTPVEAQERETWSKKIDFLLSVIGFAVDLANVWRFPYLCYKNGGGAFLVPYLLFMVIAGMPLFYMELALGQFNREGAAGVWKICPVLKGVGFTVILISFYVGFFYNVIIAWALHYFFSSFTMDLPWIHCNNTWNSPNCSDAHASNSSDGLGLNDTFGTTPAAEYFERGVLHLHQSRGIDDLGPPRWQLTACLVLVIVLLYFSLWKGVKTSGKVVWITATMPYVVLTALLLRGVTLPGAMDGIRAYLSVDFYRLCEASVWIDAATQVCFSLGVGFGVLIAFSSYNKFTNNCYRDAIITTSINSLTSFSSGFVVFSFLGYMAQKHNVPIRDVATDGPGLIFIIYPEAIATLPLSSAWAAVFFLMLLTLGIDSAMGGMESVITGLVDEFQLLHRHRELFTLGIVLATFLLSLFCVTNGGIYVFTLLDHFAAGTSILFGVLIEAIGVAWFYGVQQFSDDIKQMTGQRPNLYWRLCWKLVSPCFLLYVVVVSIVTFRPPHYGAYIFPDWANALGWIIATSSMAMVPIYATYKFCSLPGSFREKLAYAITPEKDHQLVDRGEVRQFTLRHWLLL

Molecule `Clc1ccc(NC2CCC3(CCNCC3)CC2)cc1Cl` [2nd last compound of method A, (3-Aza-spiro[5.5]undec-9-yl)-(3,4-dichloro-phenyl)-amine] returned a melting point of 128 to 132 °C. Besides, the IC50 in data set [1] came out at 0.49 µM. For the same molecule, in data set [2], the IC50 was determined as 0.0023 µM.

For the molecule `O=c1ccc2ccc(OC3CCC4(CCNCC4)CC3)cc2o1` [3rd compound of method A, 7-(3-Aza-spiro[5.5]undec-9-yloxy)-chromen-2-one], the melting point was in the range of 126 to 128 °C. Further, the IC50 in data set [1] was 1.2 µM. Besides, the IC50 in data set [2] amounted to 0.002 µM.
